Our source for the IC50 values is US20240060986A1, “METHOD FOR SELECTING PEPTIDE […] ON PROTEIN CYTOTOXICITY” (priority 2022, published 2024).

This assay has as its target T1, main protease (M^pro) of SARS-CoV2 virus (Severe acute respiratory syndrome coronavirus 2, UniProt P0DTD1).
T1 construct: 30 μl of 3CL Protease enzyme solution (0.05 ng/ul) was mixed with 10 μl of peptides; purchased BPS Bioscience 78042-1
Nature of the assay: biochemical.

No end group written: not given here.

The sequence RQDLDYQRRRGAGISSTLVQSRK [Peptide M3] yielded an IC50 of 750 µM.

PVHPQMQTETGTAHC [Peptide M14]: the IC50 came out at 1200 µM.

For orientation: IC50 means the midpoint of a concentration-inhibition curve. High values mean lower potency, low ones higher potency.
